Assay results: patent US20240058387A1, “CULTURE MEDIUM COMPOSITION FOR AMPLIFYING AND MAINTAINING SELF-RENEWAL CAPACITY AND DIFFERENTIATION POTENTIAL OF HSCS AND APPLICATION THEREOF” (EDIGENE (GUANGZHOU) INC., priority 2020, published 2024)

Key:
[1] = tested on: umbilical cord blood-derived CD34+ cells; experiment: In vivo transplantation of in vitro cultured CD34+ cells into irradiated immunodeficient NPG mice; conditions: FIG. 8A, cells cultured with 1 μM AG1296 (SR1 5 μM), week 18 after transplantation
Protocol: On the umbilical cord blood-derived CD34+ cells sorted in Example 1, the effects of the screened small molecule inhibitor AG1296 and the inhibitor SR1 reported in the literature on the in vivo hematopoietic system reconstitution ability was compared.
Preparation of cell medium: SFEM II+100 ng/ml Flt-3L+100 ng/ml SCF+100 ng/ml TPO+20 ng/ml IL-6+1% bispecific antibody. Cat. numbers of the medium, growth factor, bispecific antibody, etc. were as described in Example 2. According to the groups set in Table 4, different small molecule inhibitors were added.
The prepared cell medium was added to a 24-well plate, 950 μl per well, and placing it in a carbon dioxide incubator to preheat; using SFEMII+100 ng/ml Flt-3L+100 ng/ml SCF+100 ng/ml TPO+20 ng/ml IL-6+1% bispecific antibody to resuspend the spare umbilical cord blood-derived HSCs of Example 1. The medium volume required to resuspend the cells was calculated according to 50 μl of cell suspension was added to each well, and 0.28*10^5/ml cell density per well was; taking out the preheated medium from the incubator, adding 50 μl of resuspended cell suspension to each well, mixing well, observing the cell state under a microscope, and then putting them into the incubator for culture. […]
The proportions of human CD45, human CD19, human CD3, human CD33 and human CD56 in mouse bone marrow cells were detected by flow cytometry. […]

[2] = tested on: umbilical cord blood-derived CD34+ cells; experiment: Flow cytometry detection of HSC stemness markers (LT-HSCs CD34+CD45+CD90+CD45RA-CD38-) after small molecule induction; assay type: cell-based, human
Protocol: According to the solubility and required solvent indicated in the instructions of the small molecule inhibitor (see Table 1 for the Cat. number of the small molecule inhibitor), the preparation of the small molecule inhibitor stock solution was carried out. Next, the hematopoietic stem cell medium was prepared: SFEM II medium (stem cell, Cat. number: 09655)+50 ng/ml growth factor Flt-3L (PeProtech, Cat. number: 300-100UG)+50 ng/ml growth factor SCF (PeProtech, Cat. number): 300-07-100UG)+50 ng/ml growth factor TPO (PeProtech, Cat. number: 300-18-100UG)+10 ng/ml interleukin IL-6 (PeProtech, Cat. number: 200-06-20UG)+1% bispecific antibody (HyClone, Cat. No.: sv30010). According to the set concentration gradient of the small molecule inhibitor, the stock solution and the basal medium were used to prepare the medium containing different concentrations of the small molecule inhibitor.
First, the prepared medium was added to a 24-well plate (Corning, Cat. number: 3473), 950 μl per well, and placing it in a carbon dioxide incubator (Thermo, model: 3111) to preheat; resuspending the spare umbilical cord Blood-derived HSCs of Example 1 with SFEM 11+50 ng/ml Flt-3L+50 ng/ml SCF+50 ng/ml TPO+10 ng/ml IL-6+1% bispecific antibody, calculating the medium volume to be added according to 50 μl cell suspension per well and 2*10^5/m1 cell density per well. For example, when the final volume of the cell culture solution per well was 1 ml, the total number of cells per well was 2*10^5 cells calculated according to the cell density per well, and the density of the […] of cell suspension supplemented to each well is 4*10^6/ml. The density of the spare HSCs of Example 1 was adjusted to the calculated density of the cell suspension, and adding it; taking out the preheated medium from the incubator, adding 50 μl of the cell suspension to each well, and after mixing, using the microscope (OLYMPUS, model: CKX53) to observe the cells state, and then putting it into an incubator for culturing.
20 μL of cells cultured for 6-8 days (D6-D8) in the above Example 2 was sampled for counting, taking out a suspension of 2*10^5 cells into a 1.5 ml centrifuge tube according to the counting result; centrifuging at 400 g for 5 min, discarding the supernatant. 100 μL of PBS (phosphate-buffered saline solution, HyClone, Cat. number: SH30256.01) containing 1% HSA (human serum albumin, Guangdong Shuanglin, Cat. number: S10970069) was taken, resuspending the cells, and vortexing to mix well for later use. Then, the cell sample in the control was collected. The number of cells and the collection method were the same as those of the sample cells to be tested. The controls were setting as the NC group and the ISO group respectively, selecting the cells from any sample or mixed cells of the samples to be tested in this batch of experiments, depending on the number of cells.
According to Table 3 above, the antibodies were added to the cell suspensions of the above-mentioned cell samples to be tested and control cell samples according to groups; vortexing to mix and incubating at room temperature for 15 min in the dark. After 15-min incubation, 1 ml of PBS containing 1% HSA was added to each test sample, mixing well, centrifuging at 400 g for 5 min at room temperature. After centrifugation, the supernatant was discarded, and the cells were resuspended in 100 μL of PBS containing 1% HSA for each test sample. Samples were stored at room temperature away from light before testing. […]

In the case of `COc1cc2ncc(-c3ccccc3)nc2cc1OC` [AG1296], the “bone marrow transplantation efficiency (proportion of human CD45+ cells in mouse bone marrow cells)” value [1] is reported as “significantly higher than that of the Mock group and the SR1 group”, the “expansion fold of the ratio of LT-HSCs (CD34+CD45+CD90+CD45RA-CD38-), test group/control group (Mock)” value ([2]; FIG. 2, 6-8 days induction, 3 concentrations per inhibitor) is reported as “more than 3 times” and the “maintaining the CD3+, CD34+CD90+, CD34+CD90+CD45RA- cell ratios (proportion in total cells)” value ([2]; FIG. 3A, 1 μM, 5 μM and 10 μM, 6 days, vs Mock) is reported as “superior to the Mock group”. The “proportion of LT-HSC relative to AG1296 (500 nM)” value ([2]; FIG. 4A, 1 μM, 6 days) was “about 2 times”, the “proportion of LT-HSC relative to Mock group and AG1296 (100 nM) group” value ([2]; FIG. 4A, 1 μM, 6 days) was “about 3 times” and the “maintaining the ratio of CD34+, CD34+CD90+, and CD34+CD90+CD45RA- cells” value ([2]; FIG. 4A, 1 μM, 6 days, vs Mock, 100 nM and 500 nM) was “better than Mock group and at the concentrations of 100 nM and 500 nM”.
